Where two headings read alike, the source gives them in different places.
Tests used:
[1] = system: OCI-Ly8 LAM53; assay: Cell viability by DiOC6 staining, flow cytometry; assay type: cell-based; conditions: Homo sapiens, 72 h; OCI-Ly8 LAM53; 1x10^5 cells cultured three days, various concentrations
Method: (§1) Experiments were performed as reported recently.
(§2) PBL derived from healthy individuals were used as controls. […] ND, not done.

[2] = system: RPMI 8226; assay: Cell viability by DiOC6 staining, flow cytometry; assay type: cell-based; conditions: Homo sapiens, 72 h, 1x10^5 cells cultured three days, various concentrations
Method: as §1, §2

[3] = system: Raji; assay: Cell viability by DiOC6 staining, flow cytometry; assay type: cell-based; conditions: Homo sapiens, 72 h, 1x10^5 cells cultured three days, various concentrations
Method: as §1, §2

[4] = system: SU-DHL 4; assay: Cell viability by DiOC6 staining, flow cytometry; assay type: cell-based; conditions: Homo sapiens, 72 h; SU-DHL 4; 1x10^5 cells cultured three days, various concentrations
Method: as §1, §2

[5] = system: U266; assay: Cell viability by DiOC6 staining, flow cytometry; assay type: cell-based; conditions: Homo sapiens, U-266, 72 h, 1x10^5 cells cultured three days, various concentrations
Method: as §1, §2

[6] = system: PBMC; assay: Cell viability by DiOC6 staining, flow cytometry (normal control cells); assay type: cell-based, human; conditions: for IC50: Homo sapiens, 72 h, PBMC from healthy individuals, three days; for effect on normal PBMC and PBL: result in words
Method: PBMCs were isolated from blood of healthy donors by Ficoll-Hypaque density gradient centrifugation. Blood from buffy coats was mixed 1:2 with PBS/1% BSA (both PAA, Cölbe, Germany) and used for a ficoll gradient (LymphoPrep, PAA, Cölbe, Germany). After the centrifugation at 800 g for 30 minutes, the leukocyte layer was removed and transferred to new tubes. Subsequently, these cells were washed 3 times with PBS/1%BSA and re-suspended in fresh medium, consisting of RPMI medium (PAA, Cölbe, Germany) with 10% fetal calf serum (Invitrogen, Karlsruhe, Germany), 2.5% hepes buffer solution (PAA, Cölbe, Germany), and 1% penicillin/streptomycin (PAA, Cölbe, Germany).
as §1

[7] = system: MPC 11; assay: Cell viability by DiOC6 staining, flow cytometry; assay type: cell-based; conditions: Mus musculus, 72 h; MPC 11 (murine); three days
Method: Then cell viability was measured by DIOC6 staining in flow cytometry. […] Then cell viability was measured by DIOC6 staining in flow cytometry. Results represent data from two separate experiments. […] Six animals were used in each group. […] Six animals were used in each group.

[8] = system: OPM-2, U266 and RPMI 8226 cells; assay: Cell viability by DiOC6 staining in myeloma cell lines (mean IC50, combinations); assay type: cell-based, human; conditions: for IC50: Homo sapiens, mean of the IC50 results in OPM-2, U266 and RPMI 8226 cells; for viability of myeloma cell lines in vitro: result in words
Method: A mean IC50 value in myeloma cells was determined using the mean of the IC50 results determined in OPM-2, U266 and RPMI 8226 cells.
(§3) • Figure 1. […] Data are shown as mean ± SD. • Figure 2. […] Data are shown as mean ± SD. • Figure 3. […] (A) Flow cytometric results. […] Finally, ECL reagent was utilized for detection. • Figure 4C. […] Finally, ECL reagent was utilized for detection. • Figure 5. Effect of EA on viability of myeloma primary cells. […] Results represent data from two separate experiments. Data are shown as mean. • Figure 6. […] (A) Tumor growth and (B) overall survival were measured. Six animals were assayed per group.
Experiments were performed as reported recently. […]

[9] = system: lymphoma cell lines; assay: Cell viability by DiOC6 staining in lymphoma cell lines; assay type: cell-based, human; conditions: result in words
Method: as §1, §2

[10] = system: primary myeloma cells derived from bone marrow from patients with multiple myeloma; assay: Viability of myeloma primary cells from bone marrow; assay type: cell-based, human; conditions: incubated three days; preliminary data
Method: Bone marrow samples from patients with myeloma were taken after informed consent, single cell suspensions generated and cells ficolled. Cells were incubated with or without EA for three days and measured for viability.
as §3
Bone marrow samples from patients with myeloma were taken after informed consent, single cell suspensions generated and cells ficolled. Cells were incubated with or without CIC for three days and measured for viability.
Bone marrow samples from patients with myeloma were taken after informed consent, single cell suspensions generated and cells ficolled. Cells were incubated with or without GF for three days and measured for viability.

[11] = system: MPC11 myeloma cells; conditions: gavage, daily dosage 450 µg per animal; for overall survival time: compared to the control group; for animals in which solid tumor nodules formed: treatment group of 6
Method: All animal experiments were done at least in duplicate with groups of 6 BALB/c mice (Charles River, Sulzfeld, Germany). 5x10^5 MCP11 murine myeloma cells were injected per mouse subcutaneously into Balb/c mice. […] Overall survival and tumor growth were measured. Tumor volume was calculated as follows: volume = length x width^2 x 0,52. Animals were killed when tumor volume reached 2000 mm^3.
• Figure 1. […] 1x10^5 cells were cultured with different compounds for three days. The concentration of thalidomide was U266 160µM for U266, RPMI 20µM for RPMI, and OPM 40µM for OPM cells. Then cell viability was measured by DIOC6 staining in flow cytometry. Results represent data from three, two and five separate experiments, respectively. Separate U266 n=3, RPMI n=2, OPM n=5 experiments. Data are shown as mean ± SD. • Figure 2. […] 1x10^5 OPM cells were cultured with the different compounds for three days. The concentration of lenalidomide was 12µM for OPM and 80µM for RPMI cells. Then cell viability was measured by DIOC6 staining in flow cytometry. Results represent data from eight and five OPM n=8, RPMI n=5 separate experiments, respectively. Data are shown as mean ± SD. • Figure 3. […] (A) Flow cytometric results. […] Western Blot analysis for the detection of β-catenin in myeloma cell lines under normal conditions. The myeloma cell lines RPMI 8226, KMS-18 and U266 were analyzed according to their β-catenin expression. • Figure 4B. […] As primary antibodies purified mouse anti-β-catenin and β-actin were used at a dilution of 1:1000 and as secondary antibody served goat anti-mouse IgG-HRP at a dilution of 1:5000. Finally, ECL reagent was utilized for detection. • Figure 4C. […] As primary antibodies Purified mouse anti-β-catenin and β-actin were used at a dilution of 1:1000 and as secondary antibody served goat anti-mouse IgG-HRP at a dilution of 1:5000. Finally, ECL reagent was utilized for detection. • Figure 5. […] Results represent data from two separate experiments. Data are shown as mean. • Figure 6. […] BALB/c mice were injected with 5x10^5 MPC11 myeloma cells subcutaneously. (A) Tumor growth and (B) overall survival were measured. Six animals were assayed per group.
All animal experiments were done at least in duplicate with groups of 6 BALB/c mice (Charles River, Sulzfeld, Germany). 5x10^5 MCP11 murine myeloma cells were injected per mouse subcutaneously into Balb/c mice. Mice were treated orally with 450µg/day CIC and 750 µg lenalidomide/day, respectively. Overall survival and tumor growth were measured. Tumor volume was calculated as follows: volume = length x width^2 x 0,52. Animals were killed when tumor volume reached 2000 mm^3.
• Figure 7. […] 1x10^5 cells were cultured with different compounds for three days. The concentration of thalidomide was U266 160µM for U266, RPMI 20µM for RPMI, and OPM 40µM for OPM cells. Then cell viability was measured by DIOC6 staining in flow cytometry. Results represent data from three, two and five separate experiments, respectively. Separate U266 n=3, RPMI n=2, OPM n=5 experiments. Data are shown as mean ± SD. • Figure 8. […] 1x10^5 OPM cells were cultured with the different compounds for three days. The concentration of lenalidomide was 12µM for OPM and 80µM for RPMI cells. Then cell viability was measured by DIOC6 staining in flow cytometry. Results represent data from eight and five OPM n=8, RPMI n=5 separate experiments, respectively. Data are shown as mean ± SD. • Figure 9. […] (A) Flow cytometric results. (B) We analyzed the effect of CIC on the Wnt/beta catenin pathway by Western blot. • Figure 10A. Western Blot analysis for the detection of β-catenin in myeloma cell lines under normal conditions. The myeloma cell lines RPMI 8226, KMS-18 and U266 were analyzed according to their β-catenin expression. • Figure 10B.

[12] = system: PBL; assay: Cell viability by DiOC6 staining, flow cytometry (normal control cells); conditions: for IC50: Homo sapiens, PBL, 72 h; for effect on normal PBL: result in words
Method: (§4) Peripheral blood mononuclear cells (PBMC) and PBL were isolated from blood samples of healthy volunteers by Ficoll density gradient centrifugation (Lymphoprep, Nycomed, Oslo, Norway).
(§5) 1x10^5 Cells were cultured in 3 ml Medium in 6-well plates. […] The apoptosis assay was performed with 3'3-dihexyloxacarbocyanine iodide (DiOC6) detecting mitochondrial membrane potential in viable cells, and propidium iodide (PI) which binds to DNA in necrotic cells, measured by a fluorescence-activated cell sorter (FACS).
(§6) For FACS analysis, 500µl staining solution containing 80 nM DiOC6 in FACS buffer, consisting of deficient RPMI-medium with 0.5% bovine serum albumin (BSA), was mixed with equal volumes of the cell sample in a glass tube and incubated at 37°C for 15 min. After a washing step with PBS/BSA 1% the cells were re-suspended in 500µl PBS/BSA 1%. After addition of 5µl PI-solution (100µg/ml) the cells were analyzed by FACS. Using this assay, viable cells reveal high fluorescence intensity for DiOC6 and a low expression for PI. In contrary, apoptotic cells show a low expression for DiOC6 and also a low expression for PI (2). Finally, necrotic cells show a low expression for DiOC6 and a high expression for PI.
(§7) PBMC and PBL derived from healthy individuals were used as normal controls. 1x10^5 cells were cultured with each compound using various concentrations for three days. Then cell viability was measured by DIOC6 staining by flow cytometry. Results represent data from two to four separate experiments each.
(§8) PBMC and PBL derived from healthy individuals were used as normal controls. 1x10^5 cells were cultured with each compound using various concentrations for three days. Then cell viability was measured by DIOC6 staining by flow cytometry. Results represent data from 2 to 4 separate experiments each.
(§9) 1x10^5 Cells were cultured in 3 ml Medium in 6-well plates. […] The apoptosis assay was performed with 3' 3-dihexyloxacarbocyanine iodide (DiOC6) detecting mitochondrial membrane potential in viable cells, and propidium iodide (PI) which binds to DNA in necrotic cells, measured by a fluorescence-activated cell sorter (FACS).
(§10) PBL derived from healthy individuals were used as controls. 1x10^5 cells were cultured with each compound using various concentrations for three days. Then cell viability was measured by DIOC6 staining by flow cytometry and IC 50 rates were determined. Results represent data from 2 to 4 separate experiments each.
(§11) PBMC and PBL derived from healthy individuals were used as controls. 1x10^5 cells were cultured with each compound using various concentrations for three days.

[13] = system: Daudi and Raji cells; assay: Cell viability in combination experiments, lymphoma cells; assay type: cell-based, human; conditions: single drug or combination; data not shown
[14] = system: OPM-2 myeloma cells; assay: Cell viability by DiOC6 staining, flow cytometry; assay type: cell-based, human; conditions: for IC50: Homo sapiens, 72 h, OPM-2, 1x10^5 cells cultured three days, various concentrations
Method: as §1, §2

[15] = system: KMS18; assay: Cell viability by DiOC6 staining, flow cytometry; assay type: cell-based; conditions: Homo sapiens, 72 h, three days
Text: as §2

[16] = system: PBL
Method: as §4, §5, §6, §7, §8, §9, §10, §11

Structure (SMILES)	IC50 [1] [µM]	IC50 [2] [µM]	IC50 [3] [µM]	IC50 [4] [µM]	IC50 [5] [µM]	IC50 [6] [µM]	IC50 [7] [µM]	IC50 [8] [µM]	viability of myeloma cell lines in vitro [8]	viability of lymphoma cell lines in vitro [9]	growth of primary myeloma cells [10]	overall survival time [11]	animals in which solid tumor nodules formed [11]	IC50 [12] [µM]	IC50 [14] [µM]	effect on normal PBMC and PBL [6]	effect on normal PBL [12]	also measured
COC1=CC(=O)C[C@@H](C)[C@]12Oc1c(Cl)c(OC)cc(OC)c1C2=O [griseofulvin, (2S,6'R)-7-chloro-2',4,6-trimethoxy-6'-methyl-3H,4'H-spiro [1-benzofuran-2,1'-cyclohex[2]ene]-3,4'-dione]	30	26	33	22	18	180	41	22	significantly decreased the viability	significantly (p<0.05) decreased	inhibits the growth	significantly (p<0.05) longer	5 of 6	80	–	–	–	–
COc1cccc2c1C(=O)c1c(O)c3c(c(O)c1C2=O)C[C@@](O)(C(=O)CO)C[C@@H]3O[C@H]1C[C@H](N)[C@H](O)[C@H](C)O1 [doxorubicin]	–	–	–	–	–	–	–	–	–	–	–	–	–	–	–	–	–	viability of Daudi and Raji cells [13]: significant decrease in viability
CC(C)C[C@H](NC(=O)[C@H](Cc1ccccc1)NC(=O)c1cnccn1)B(O)O [bortezomib]	–	–	–	–	–	–	–	–	–	–	–	–	–	–	–	–	–	viability of OPM-2 myeloma cells ([14]; bortezomib alone or in combination, data not shown): significant decrease in viability
Nc1cccc2c1CN(C1CCC(=O)NC1=O)C2=O (racemic) [lenalidomide, (RS)-3-(4-amino-1-oxo-3H-isoindol-2-yl)piperidine-2,6-dione]	> 1000	2	> 1000	> 1000	34	> 400	–	16.3	–	no effect	–	–	–	> 200	13	marginal	marginal	viability of OPM-2 and RPMI-8226 myeloma cells ([8]; lenalidomide 12µM for OPM, 80µM for RPMI, three days): significant decrease in viability
Cc1cc(CC(C)CC(C)(C)C)n(O)c(=O)c1 (stereo not shown) [piroctone olamine]	0.6	0.6	0.6	0.7	0.6	–	0.8	0.6	significantly decreased the viability	significantly (p<0.05) decreased	inhibits the growth	significantly (p<0.05) longer	5 of 6	18	0.7	–	marginal	IC50 [15]: 0.6 µM
O=C1CCC(N2C(=O)c3ccccc3C2=O)C(=O)N1 (racemic) [thalidomide, (RS)-2-(2,6-dioxopiperidin-3-yl)-1H-isoindole-1,3(2H)-dione]	> 400	> 400	> 400	> 400	300	> 400	–	> 251	–	no effect	–	–	–	> 400	53	no effect	–	viability of OPM-2, U-266 and RPMI-8226 myeloma cells ([8]; thalidomide 160µM for U266, 20µM for RPMI, 40µM for OPM, three days): significant decrease in viability; effect on normal PBL [16]: no effect
